# Assay results reported in ChEMBL document CHEMBL1201862, “PubChem BioAssay data set” (2004).
# The source made the active and inactive calls.
# Legend:
# [1] = HIV-1 AD8 envelope cell-cell fusion blockers – cherry-pick, dose response (AID 652062); format: functional, cell-based;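 note: luciferase signal from cell-cell fusion driven by HIV-1 clade B AD8 Env; potency is for inhibitors of fusion seen as a drop in luminescence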
# [2] = off-target signal loss in HeLa-CEM21 co-culture – HeLa F-luc CTL cells, cherry-picked, counter-screen for HIV-1 Env fusion inhibitor project, dose response (AID 652040); format: functional, cell-based;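 note: potency for signal decrease marking cytotoxic or nonspecific inhibition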
# [3] = NIH3T3 cell viability loss – ATP luminescence, mouse fibroblasts, counter-screen, dose response (AID 2010); format: functional, cell-based;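 note: cells exposed to compound for about 90 hours before reading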
# [4] = Trypanosoma cruzi growth suppression in host cells – NIH3T3 host cells, beta-gal luminescence, confirmation (AID 2044); format: functional, cell-based;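 note: intracellular parasites grown in NIH/3T3 mouse fibroblasts as host cells; luminescent beta-galactosidase reporter signal from transgenic T. cruzi replicating inside host cells; inhibitors lower the luminescence signal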
# [5] = viability of uninfected HEp-2 cells – cell-based, HTS, cytotoxicity control for RSV inhibitor project, dose response (AID 2410); format: functional; conditions: human respiratory syncytial virus
# Bcl-2-related protein A1 [6] = target: T1, Bcl-2-related protein A1 (Mus musculus, UniProt Q07440); assay: Bfl-1 binding inhibitors, SAR follow-up, biochemical, fluorescence polarization (AID 1070)
# T1 sequence (Q07440 whole entry): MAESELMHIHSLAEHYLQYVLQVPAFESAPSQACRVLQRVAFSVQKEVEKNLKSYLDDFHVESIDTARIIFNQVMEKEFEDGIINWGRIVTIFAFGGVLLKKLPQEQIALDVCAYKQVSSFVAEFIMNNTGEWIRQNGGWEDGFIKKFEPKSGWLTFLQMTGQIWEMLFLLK
# Bcl-2-related protein A1 [7] = target: T1, Bcl-2-related protein A1; assay: small-molecule antagonists of Bfl-1/BH3 interaction – biochemical, TR-FRET, mouse Bfl-1, confirmation (AID 621);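 note: TR-FRET binding of GST-Bfl-1 to FITC-labelled Bid peptide via terbium antibody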
# [8] = target: Glyceraldehyde-3-phosphate dehydrogenase (Homo sapiens, UniProt P04406)
# Chain of Glyceraldehyde-3-phosphate dehydrogenase (P04406 whole entry): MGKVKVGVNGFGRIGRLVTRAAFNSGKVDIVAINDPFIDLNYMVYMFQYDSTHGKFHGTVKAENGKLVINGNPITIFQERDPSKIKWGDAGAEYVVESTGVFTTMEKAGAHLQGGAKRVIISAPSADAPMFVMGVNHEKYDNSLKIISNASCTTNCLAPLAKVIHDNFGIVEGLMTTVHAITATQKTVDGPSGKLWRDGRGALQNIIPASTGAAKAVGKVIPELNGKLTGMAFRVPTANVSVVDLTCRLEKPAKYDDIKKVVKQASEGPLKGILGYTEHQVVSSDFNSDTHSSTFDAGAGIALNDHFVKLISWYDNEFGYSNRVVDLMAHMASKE
# [9] = target: T2, Rac GTPase-activating protein 1 (Homo sapiens, UniProt Q9H0H5); assay: blockers of MgcRacGAP-driven Rac1 GTP hydrolysis – biochemical, ADP Hunter fluorescence, primary and confirmatory, confirmation (AID 624330); format: functional
# T2 sequence (Q9H0H5 whole entry): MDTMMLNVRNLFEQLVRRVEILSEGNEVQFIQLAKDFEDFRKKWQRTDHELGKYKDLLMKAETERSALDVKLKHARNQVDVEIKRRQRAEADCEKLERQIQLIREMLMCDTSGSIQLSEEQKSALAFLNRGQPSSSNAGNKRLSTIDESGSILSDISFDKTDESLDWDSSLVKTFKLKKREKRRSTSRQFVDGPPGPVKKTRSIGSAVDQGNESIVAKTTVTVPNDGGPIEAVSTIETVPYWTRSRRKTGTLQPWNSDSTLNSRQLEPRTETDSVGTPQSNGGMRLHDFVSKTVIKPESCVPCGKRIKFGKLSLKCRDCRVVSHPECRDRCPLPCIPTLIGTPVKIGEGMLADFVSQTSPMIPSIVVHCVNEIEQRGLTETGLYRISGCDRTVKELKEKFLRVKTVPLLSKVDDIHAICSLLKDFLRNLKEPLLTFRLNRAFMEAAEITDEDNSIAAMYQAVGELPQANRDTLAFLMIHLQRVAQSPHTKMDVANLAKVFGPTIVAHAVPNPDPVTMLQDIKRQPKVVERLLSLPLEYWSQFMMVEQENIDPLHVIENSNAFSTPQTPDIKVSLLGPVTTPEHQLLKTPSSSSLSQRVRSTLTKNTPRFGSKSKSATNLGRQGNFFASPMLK
# [10] = HIV-1 Vif–A3G interaction blockers – biochemical, TR-FRET, GST-Vif 1-94, biotin-A3G peptide, dose response retest, primary screen (AID 1117319); format: functional;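 note: TR-FRET signal of purified GST-Vif binding a biotinylated A3G peptide; inhibitors lower the FRET signal by blocking Vif and A3G binding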
# [11] = target: FAD-linked sulfhydryl oxidase ALR (Homo sapiens, UniProt P55789); assay: ALR-catalysed DTT oxidation blockers – biochemical, H2O2 detection, luminescence, cherry-pick, dose response (AID 493248)
# Chain of FAD-linked sulfhydryl oxidase ALR (P55789 whole entry): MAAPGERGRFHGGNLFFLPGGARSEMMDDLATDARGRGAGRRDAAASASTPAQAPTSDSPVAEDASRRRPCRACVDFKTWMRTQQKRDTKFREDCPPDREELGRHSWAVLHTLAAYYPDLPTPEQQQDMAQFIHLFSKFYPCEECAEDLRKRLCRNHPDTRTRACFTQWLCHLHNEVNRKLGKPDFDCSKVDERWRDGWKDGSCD
# Protein skinhead-1 = target: T3, Protein skinhead-1 (Caenorhabditis elegans, UniProt P34707); format: functional
# T3 sequence (P34707 whole entry): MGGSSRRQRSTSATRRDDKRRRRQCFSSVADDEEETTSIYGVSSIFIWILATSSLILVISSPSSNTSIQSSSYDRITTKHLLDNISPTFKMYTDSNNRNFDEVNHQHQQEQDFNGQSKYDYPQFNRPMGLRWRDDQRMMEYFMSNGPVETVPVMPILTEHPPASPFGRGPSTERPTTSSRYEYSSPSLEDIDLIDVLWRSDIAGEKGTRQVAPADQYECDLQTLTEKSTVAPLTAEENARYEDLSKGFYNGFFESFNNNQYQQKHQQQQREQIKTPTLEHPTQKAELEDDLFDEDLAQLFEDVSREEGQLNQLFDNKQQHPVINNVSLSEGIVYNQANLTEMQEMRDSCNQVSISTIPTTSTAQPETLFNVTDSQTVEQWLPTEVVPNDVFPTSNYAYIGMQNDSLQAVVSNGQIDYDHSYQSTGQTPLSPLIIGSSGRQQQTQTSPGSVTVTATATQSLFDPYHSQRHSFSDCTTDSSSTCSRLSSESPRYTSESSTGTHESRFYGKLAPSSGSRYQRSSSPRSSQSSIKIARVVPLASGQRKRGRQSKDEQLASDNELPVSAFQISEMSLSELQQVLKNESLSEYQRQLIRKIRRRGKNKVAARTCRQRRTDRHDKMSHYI
# Protein Tat = target: T4, Protein Tat (Human immunodeficiency virus type 1 group M subtype B (isolate HXB2)(HIV-1), UniProt P04608); format: functional;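 note: tat binding to TAR RNA read out by fluorescence polarization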
# T4 sequence (P04608 whole entry): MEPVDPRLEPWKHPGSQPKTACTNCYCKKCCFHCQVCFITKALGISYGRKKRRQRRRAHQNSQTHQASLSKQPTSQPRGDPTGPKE
# [12] = system: Streptococcus sp. 'group A'; assay: Streptococcus pyogenes SK(-)GAS viability under kanamycin – luminescence, BacTiterGlo, confirmation, counter-screen for streptokinase expression inhibitor project, dose response (AID 1900); format: functional, organism-based
# Streptokinase A = target: T5, Streptokinase A (Streptococcus pyogenes serotype M1, UniProt P10520); assay: viability-normalized secreted streptokinase activity reduction – plasminogen activation absorbance, OD405, dose response (AID 1914); format: functional, Streptococcus pyogenes M1 GAS;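 note: secreted streptokinase activity via plasminogen activation per viability signal from cell pellet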
# T5 sequence (P10520 whole entry): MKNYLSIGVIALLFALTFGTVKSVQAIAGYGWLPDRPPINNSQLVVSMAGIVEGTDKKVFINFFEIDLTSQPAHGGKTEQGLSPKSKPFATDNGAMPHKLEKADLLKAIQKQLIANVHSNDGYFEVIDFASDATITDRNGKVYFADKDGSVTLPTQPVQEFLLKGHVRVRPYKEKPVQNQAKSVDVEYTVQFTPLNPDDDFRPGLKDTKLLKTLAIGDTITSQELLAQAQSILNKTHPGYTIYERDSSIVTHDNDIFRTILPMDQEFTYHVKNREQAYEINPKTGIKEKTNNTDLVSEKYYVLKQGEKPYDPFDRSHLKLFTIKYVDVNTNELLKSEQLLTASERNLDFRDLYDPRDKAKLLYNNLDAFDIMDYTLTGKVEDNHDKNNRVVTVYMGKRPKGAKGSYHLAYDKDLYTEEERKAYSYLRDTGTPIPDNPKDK
# Streptococcus = assay: GAS UMAA2166 growth inhibition – luminescence, BacTiterGlo, counter-screen for streptokinase expression inhibitor project, dose response (AID 1915); format: functional, organism-based;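 note: potency for reduction of bacterial viability or growth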
# [13] = target: T6, Dual specificity protein phosphatase 6 (Rattus norvegicus, UniProt Q64346); assay: inhibition of rat DUSP6 enzyme activity – biochemical, in vitro, primary screen (AID 425)
# T6 sequence (Q64346 whole entry): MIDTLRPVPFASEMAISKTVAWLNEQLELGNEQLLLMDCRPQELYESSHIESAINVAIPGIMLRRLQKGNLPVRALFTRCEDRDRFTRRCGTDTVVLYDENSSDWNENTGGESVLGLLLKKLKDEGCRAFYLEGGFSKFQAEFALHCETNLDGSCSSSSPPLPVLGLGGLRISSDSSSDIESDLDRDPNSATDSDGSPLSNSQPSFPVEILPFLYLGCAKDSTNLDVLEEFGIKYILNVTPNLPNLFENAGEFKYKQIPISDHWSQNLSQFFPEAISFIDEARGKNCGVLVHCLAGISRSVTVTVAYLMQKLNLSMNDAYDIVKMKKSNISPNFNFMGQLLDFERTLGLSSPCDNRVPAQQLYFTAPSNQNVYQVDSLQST
# Cytochrome P450 1A2 = target: T7, Cytochrome P450 1A2 (Homo sapiens, UniProt P05177);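 note: PubChem cytochrome P450 panel assay, CYP1A2 panel member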
# T7 sequence (P05177 whole entry): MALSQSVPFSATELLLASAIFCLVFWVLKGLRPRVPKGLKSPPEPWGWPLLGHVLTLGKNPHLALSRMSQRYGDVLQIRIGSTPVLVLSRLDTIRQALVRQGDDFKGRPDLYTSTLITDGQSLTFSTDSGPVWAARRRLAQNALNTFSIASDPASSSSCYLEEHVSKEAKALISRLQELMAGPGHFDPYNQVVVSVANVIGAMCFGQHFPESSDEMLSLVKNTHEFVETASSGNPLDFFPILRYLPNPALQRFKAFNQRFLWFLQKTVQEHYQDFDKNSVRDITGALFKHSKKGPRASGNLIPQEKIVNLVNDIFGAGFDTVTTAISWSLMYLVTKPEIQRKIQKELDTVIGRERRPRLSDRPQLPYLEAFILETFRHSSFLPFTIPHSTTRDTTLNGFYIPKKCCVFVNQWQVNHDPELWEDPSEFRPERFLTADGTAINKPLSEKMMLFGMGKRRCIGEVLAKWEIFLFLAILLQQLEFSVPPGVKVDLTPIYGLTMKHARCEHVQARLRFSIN
structure (smiles),measurement,setting,value
CC(=O)c1ccc(S(=O)(=O)N2CCN(c3nc4c(C)c(C)ccc4cc3C#N)CC2)cc1,AC50,[1],11.2 µM (active)
same,AC50,[2],10.3 µM (active)
same,EC50,[3],> 60 µM (not active)
same,EC50,[4],1.9 µM (active)
COC(=O)C1=C(c2ccc(F)cc2F)C[C@@H]2CC[C@H]1N2C(=O)NCCOc1ccccc1Cl,IC50,cells,13.9 µM (active)
same,CC50,[5],34.5 µM (active)
CS(=O)(=O)c1nc(-c2ccccc2)cc(-c2ccccc2)n1,IC50,Bcl-2-related protein A1 [6],> 100 µM (not active)
same,IC50,Bcl-2-related protein A1 [7],> 100 µM (not active)
same,IC50,[8],> 100 µM (not active)
Cc1cccc(N2C(=O)C(Cl)=C(N3CCN(CCO)CC3)C2=O)c1,IC50,Bcl-2-related protein A1 [6],12.3 µM (active)
same,IC50,Bcl-2-related protein A1 [7],11.5 µM (active)
same,IC50,[8],> 100 µM (not active)
CC(=O)N1CCN(c2ccc(NCc3ccccc3)cc2)CC1,IC50,[9],10.5 µM (active)
same,IC50,[10],> 50.5 µM (active)
same,AC50,[11],0.57 µM (active)
same,IC50,Protein skinhead-1,> 100 µM (inactive)
same,IC50,Protein Tat,13.7 µM (inconclusive)
Cc1ccc2c(C)c(C(=O)Nc3ccc(S(=O)(=O)Nc4onc(C)c4C)cc3)oc2c1,IC50,cells,24.7 µM (active)
same,EC50,[12],23.8 µM (active)
same,EC50,Streptokinase A,> 150 µM (not active)
same,CC50,[5],24.4 µM (active)
same,EC50,Streptococcus,> 150 µM (not active)
COc1ccc(S(=O)(=O)N2CCC(NC(=O)Nc3ccc(C)cc3)CC2)cc1,IC50,[13],> 100 µM (not active)
same,AC50,Cytochrome P450 1A2,31.6 µM (inconclusive)
O=C1C(Cl)=C(N2CCN(c3ncccn3)CC2)C(=O)N1c1ccc(Cl)c(Cl)c1,IC50,Bcl-2-related protein A1 [6],1.9 µM (active)
same,IC50,Bcl-2-related protein A1 [7],2.46 µM (active)
same,IC50,[8],> 100 µM (not active)
